PMC6156125, “Chemistry and Hypoglycemic Activity of GPR119 Agonist ZB-16” (Frontiers in Endocrinology, 2018)

How the values were obtained:
[1] = system: rats with streptozotocin-nicotinamide (STZ-NA) induced T2D; assay: Hypoglycemic activity after continuous (28 days) oral administration in T2D rat model, OGTT; format: in vivo
Procedure: Procedures were performed in 40 female Wistar rats weighing 250–280 g. Streptozotocin-nicotinamide-induced rat model of T2D was used ([24], [25]). Briefly, streptozotocin (Sigma, St. Louis, MO, USA) was administered i.p. to overnight fasted rats (65 mg/kg in 100 mmol/l citrate buffer, Ph 4.5). Nicotinamide (Sigma, St. Louis, MO, USA) (230 mg/kg) dissolved in saline was administered i.p. 15 min before streptozotocin. STZ-NA T2D had been confirmed 72 h after in rats with blood glucose levels in a range 9–14 mmol/l measured in fasting (6 h) conditions. […] Following the continuous oral administration of sitagliptin (10 mg/kg), ZB-16 (1 mg/kg) or saline during 28 days STZ-NA T2D confirmation the fasting blood glucose levels were measured, and oral glucose tolerance test (OGTT) was performed. For OGTT rats received an oral dose of […] glucose dissolved in saline; blood glucose levels were monitored every 30 min for 2 h after glucose administration. Sitagliptin dose was chosen in accordance with published data ([26]).

[2] = system: HepG2 cell culture; assay: Cell toxicity in vitro, Cell Titer Glo cell viability (ATP); format: cell-based, human; conditions: Figure 3
Procedure: Cell viability was estimated by the quantity of ATP produced by the HepG2 cell culture, derived from human liver hepatocellular carcinoma. Experiments were performed using a Cell Titer Glo Cell Viability (Promega) test system ([17]). Tubercidin, an inhibitor of various cellular metabolic processes, including RNA processing, nucleic acid synthesis, protein synthesis, and methylation of tRNA through intracellular incorporation into nucleic acids, was used as a positive control ([18]). Median inhibitory concentration (IC50) was used as a quantitative parameter to evaluate cell toxicity. To evaluate inhibition effectiveness (% Inh), the following formula was used: % Inh = [(Lpos − Lexp)/(Lpos − Lneg)] ^* 100%, where Lpos is the positive control (luminescence in cells with no compound); Lneg is the negative control (luminescence in cells containing medium but no cells); and Lexp is the luminescence in cells containing the compound at a certain concentration. IC50 values were calculated using Prism 5 and the criteria for minimization of the experimental points squares deviation from the theoretically calculated curve algorithm.

[3] = Biotransformation in vitro, microsomal stability (rat); format: in vitro ADME
Procedure: The metabolism of the compounds was studied in commercially available microsomal fractions derived from human and rat hepatocytes. Test compounds (0.5 μM) were incubated with microsomal fractions in the presence of NADPH during 30 min in a shaker at 37°C. Reactions were stopped at 0, 5, 10, 15, and 30 min by adding acetonitrile. After proteins precipitation, the remaining amount of the test compound in the supernatant was detected with high performance liquid chromatography tandem-mass spectrometry (HPLC-MS/MS) method using Agilent 1260 liquid chromatograph (Agilent Technologies, Santa Clara, CA, USA) and a QTRAP6500 triple quadrupole mass spectrometer with a TurboIonSpray electro-spraying module (ABSciex, Foster City, CA, USA) ([15]). Incubation was performed twice, with at least 2 measurements for each replicate (n ≥ 3). The half-life (T1/2), the clearance in vitro (CLint) and the remaining amount of substance (% of initial quantity) were calculated.

[4] = biological target: T1, CYP2C19 (Homo sapiens, UniProt P33261); assay: CYP inhibition, Vivid CYP450 Screening Kit; format: in vitro ADME; conditions: 0.0046 to 10 μM tested
T1 construct: purchased Invitrogen Corporation, Carlsbad, CA, USA
T1 sequence (P33261 whole entry): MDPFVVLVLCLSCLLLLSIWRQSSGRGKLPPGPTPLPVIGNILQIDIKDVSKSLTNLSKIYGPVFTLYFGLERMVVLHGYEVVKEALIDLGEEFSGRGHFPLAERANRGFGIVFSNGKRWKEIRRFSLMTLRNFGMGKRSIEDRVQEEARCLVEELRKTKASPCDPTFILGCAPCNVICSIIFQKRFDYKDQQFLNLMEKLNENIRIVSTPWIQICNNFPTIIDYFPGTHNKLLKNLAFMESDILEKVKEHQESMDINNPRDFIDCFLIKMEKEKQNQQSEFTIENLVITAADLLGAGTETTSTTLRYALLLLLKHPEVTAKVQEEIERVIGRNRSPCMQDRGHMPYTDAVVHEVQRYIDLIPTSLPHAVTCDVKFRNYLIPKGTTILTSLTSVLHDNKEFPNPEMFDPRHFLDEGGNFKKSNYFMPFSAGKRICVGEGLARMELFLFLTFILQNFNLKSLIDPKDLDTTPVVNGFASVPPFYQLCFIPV
Procedure: (§1) Briefly, the reaction was initiated by adding NADP^+ and a substrate converted to fluorescent derivates by specific CYP isozyme. The reaction was terminated by adding 1M Tris. The fluorescence of the reaction product, which was proportional to CYP isozyme activity, was measured. […] The minimal signal was defined as the signal obtained without enzyme incubation. The inhibitory action of test compounds on the CYP isozymes was expressed in terms of median inhibitory concentration (IC50).

[5] = biological target: T2, CYP2D6 (Homo sapiens, UniProt P10635); assay: CYP inhibition, Vivid CYP450 Screening Kit; format: in vitro ADME; conditions: 0.0046 to 10 μM tested
T2 construct: purchased Invitrogen Corporation, Carlsbad, CA, USA
T2 sequence (P10635 whole entry): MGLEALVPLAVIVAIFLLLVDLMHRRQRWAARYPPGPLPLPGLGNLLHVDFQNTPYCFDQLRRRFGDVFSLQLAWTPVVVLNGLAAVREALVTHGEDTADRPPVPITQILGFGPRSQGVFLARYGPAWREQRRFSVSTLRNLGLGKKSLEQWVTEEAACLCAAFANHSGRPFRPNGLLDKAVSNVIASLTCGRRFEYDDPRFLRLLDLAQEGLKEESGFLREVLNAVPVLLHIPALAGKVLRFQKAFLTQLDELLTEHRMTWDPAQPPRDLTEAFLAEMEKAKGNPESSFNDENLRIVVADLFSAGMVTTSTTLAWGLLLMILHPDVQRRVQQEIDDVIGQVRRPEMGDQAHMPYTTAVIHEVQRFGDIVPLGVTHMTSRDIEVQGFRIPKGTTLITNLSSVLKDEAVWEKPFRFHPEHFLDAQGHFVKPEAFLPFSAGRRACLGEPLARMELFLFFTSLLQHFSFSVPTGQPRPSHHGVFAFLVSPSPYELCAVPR
Procedure: as §1

[6] = biological target: T3, CYP2C9 (Homo sapiens, UniProt P11712); assay: CYP inhibition, Vivid CYP450 Screening Kit; format: in vitro ADME; conditions: 0.0046 to 10 μM tested
T3 construct: purchased Invitrogen Corporation, Carlsbad, CA, USA
T3 sequence (P11712 whole entry): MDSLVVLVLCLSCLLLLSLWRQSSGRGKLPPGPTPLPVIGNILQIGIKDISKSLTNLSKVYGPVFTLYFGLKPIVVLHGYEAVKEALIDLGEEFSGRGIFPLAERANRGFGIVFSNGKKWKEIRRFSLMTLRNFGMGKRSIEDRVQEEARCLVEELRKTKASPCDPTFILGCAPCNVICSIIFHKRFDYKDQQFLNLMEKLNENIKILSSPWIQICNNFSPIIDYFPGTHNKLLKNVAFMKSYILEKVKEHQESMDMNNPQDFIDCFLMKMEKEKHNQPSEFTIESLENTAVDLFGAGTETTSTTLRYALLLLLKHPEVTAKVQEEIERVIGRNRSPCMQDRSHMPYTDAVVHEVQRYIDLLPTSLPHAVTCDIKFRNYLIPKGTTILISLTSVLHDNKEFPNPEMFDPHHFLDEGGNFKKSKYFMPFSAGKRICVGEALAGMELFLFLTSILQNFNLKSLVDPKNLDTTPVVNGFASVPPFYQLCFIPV
Procedure: as §1

[7] = biological target: T4, CYP3A4 (Homo sapiens, UniProt P08684); assay: CYP inhibition, Vivid CYP450 Screening Kit; format: in vitro ADME; conditions: 0.0046 to 10 μM tested
T4 construct: purchased Invitrogen Corporation, Carlsbad, CA, USA
T4 sequence (P08684 whole entry): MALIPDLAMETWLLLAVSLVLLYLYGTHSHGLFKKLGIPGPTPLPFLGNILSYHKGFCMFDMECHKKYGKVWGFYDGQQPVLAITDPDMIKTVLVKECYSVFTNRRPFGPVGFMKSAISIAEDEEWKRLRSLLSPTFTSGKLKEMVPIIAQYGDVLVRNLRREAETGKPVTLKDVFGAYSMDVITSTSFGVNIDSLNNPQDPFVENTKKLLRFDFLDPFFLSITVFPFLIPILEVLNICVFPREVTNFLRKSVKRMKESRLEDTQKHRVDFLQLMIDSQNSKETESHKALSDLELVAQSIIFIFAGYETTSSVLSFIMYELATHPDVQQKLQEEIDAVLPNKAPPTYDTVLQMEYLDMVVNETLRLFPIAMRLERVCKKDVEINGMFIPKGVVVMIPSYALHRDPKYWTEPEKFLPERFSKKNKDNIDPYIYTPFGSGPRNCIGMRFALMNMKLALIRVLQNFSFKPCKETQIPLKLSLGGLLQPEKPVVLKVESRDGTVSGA
Procedure: as §1

[8] = system: male Wistar rats with streptozotocin-nicotinamide induced type 2 diabetes mellitus (STZ-NA T2D); design: method as in PMID 28736546; conditions: 1 mg/kg/day orally for 28 day, ref [11]; cited from earlier work
[9] = biological target: T5, human GPR119 (hGPR119) (Homo sapiens, UniProt Q8TDV5); assay: Specific (agonistic) activity in vitro, cAMP increase (Lance Ultra cAMP kit) in CHO-K1 cells expressing hGPR119; format: cell-based; conditions: for EC50: CHO-K1 hGPR119, cAMP
T5 construct: expressed in transfected cells; host or cells: CHO-K1 (Chinese hamster ovary)
T5 sequence (Q8TDV5 1-335): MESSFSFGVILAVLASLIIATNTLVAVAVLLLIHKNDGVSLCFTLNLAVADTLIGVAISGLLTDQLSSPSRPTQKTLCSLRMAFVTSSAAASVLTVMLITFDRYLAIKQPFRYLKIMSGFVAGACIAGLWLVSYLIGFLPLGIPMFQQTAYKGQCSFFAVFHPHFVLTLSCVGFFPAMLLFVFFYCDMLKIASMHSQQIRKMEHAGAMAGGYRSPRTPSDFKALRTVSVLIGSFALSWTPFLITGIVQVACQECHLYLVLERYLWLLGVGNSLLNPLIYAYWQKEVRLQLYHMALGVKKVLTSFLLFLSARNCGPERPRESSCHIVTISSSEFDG
Procedure: Specific activity was evaluated using an immortalized Chinese hamster ovary cell line CHO-K1 steadily expressed human GPR119 (hGPR119). The cells (10^7 ml^−1) were cultured in Dulbecco's modified Eagle medium (DMEM) modified with 10% fetal bovine serum (FBS), revolved continuously at 50 rpm at 37°C in 8% CO2 for 3–4 days. Lance Ultra cAMP kit (Perkin Elmer, Waltham, MA, USA) was chosen as the experimental platform ([13]). The experiments were performed in accordance to the manufacturer's instructions. The agonistic activity of the test compounds was estimated by the increase in intracellular cAMP concentration, assuming the hGPR119 activation is followed by the activation of cellular adenylate cyclase, which increases intracellular cAMP levels ([4], [14]). Known agonists of hGPR119 receptors were used as positive controls to determine the maximal possible effect (MPE). The activity of test compounds was expressed in terms of median effective concentration (EC50).

For `O=S1(=O)COc2cc(-c3ccc(OCC4CCN(c5ncc(Cl)cn5)CC4)c(F)c3)ccc21` [ZB-16], the “reduction in the area under the glucose concentration-time curve compared to the control group” value ([1]; OGTT on day 28, 1 mg/kg/day oral) was 22%, the “blood glucose levels lower than in saline group” value ([1]; OGTT on day 28, 1 mg/kg/day oral, 30 min after oral glucose (3 mg/kg)) was 27% and the “mean blood glucose level” value ([1]; OGTT on day 28, 1 mg/kg/day oral, two hours after glucose administration) was 9.1 ± 0.37 mmol/L. For the same compound, the blood glucose levels ([1]; daily oral ZB-16 1 mg/kg or sitagliptin 10 mg/kg for 28 days, STZ-NA T2D) was “reduction”, the “effect on HepG2 cell culture viability” value [2] was “no effect” and the ER ([3]; Rat microsomal fraction) was 0.58. It also gave a CLh ([3]; Rat microsomal fraction, in mL/min/kg (unit assumed)) of 32.09, a microsomal CLint at 0.5 μM ([3]; liver microsomal fraction) of 42.8 µL/min/mg and a half-life at 0.5 μM ([3]; liver microsomal fraction, 0.5 μM, NADPH, read-out: t1/2, min) of 1.08 h. The IC50 [4] was over 10 µM, the IC50 [5] was over 10 µM and the IC50 [6] was over 10 µM. For the same compound, the IC50 [7] was over 10 µM, the “blood glucose levels under fasting conditions” value [8] was “decreased” and the glucose utilization [8] was “improved”. For the same compound, the “stimulated secretion of GLP-1 and insulin” value [8] was “increase”, the EC50 [9] was 0.00725 µM and the EC50 ([9]; values of the text) was 0.0073 to 0.0097 µM. The “type of agonism on GPR119” value ([9]; response normalized to control substance (Arena)) was “complete agonist”.
